This note sets out measurements from patent US10961219B2, “Derivatives and their use as selective inhibitors of caspase-2” (priority 2016, dated 2021).

The target in assay [1] is T1, Caspase-2 (Homo sapiens, UniProt P42575).
T1 construct: the Caspase-2 and Caspase-3 are human recombinant active enzymes; purchased Enzo Life ALX-201-057-U100
T1 sequence (P42575 170-325 limits assumed): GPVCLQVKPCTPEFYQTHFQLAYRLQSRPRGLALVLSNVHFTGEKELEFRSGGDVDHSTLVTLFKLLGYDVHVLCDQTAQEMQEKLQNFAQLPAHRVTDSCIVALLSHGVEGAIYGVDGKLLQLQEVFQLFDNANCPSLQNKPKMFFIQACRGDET
T1 sequence (P42575 348-452 limits assumed): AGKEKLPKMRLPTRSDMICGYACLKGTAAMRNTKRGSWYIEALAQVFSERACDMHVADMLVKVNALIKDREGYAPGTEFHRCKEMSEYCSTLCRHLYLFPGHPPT
The experiment in a line: Caspase-2 inhibition assay (in vitro), kinact/KI by continuous method. It counts as biochemical. The note with it: for kinact/KI: human recombinant Caspase-2 0.1 nM, substrate Ac-VDVAD-AMC, 37° C., read-out: Inactivation constant kinact/KI Caspase-2 (converted); for times more efficient to inactivate Caspase-2 than to inactivate Caspase-3 (selectivity): ratio of kinact/KI Caspase-2 versus Caspase-3. From the text:
(§1) The efficiency of the compound 2 of the invention to inhibit Caspase-2 and Caspase-3 has been evaluated by using the below explained protocol.
(§2) The efficiency of the comparative compound Δ2Me-TRP601, that is an already known group II Caspase inhibitor (inhibitor of Caspase-2, Caspase-3 and Caspase-7), has been assessed by a similar protocol described in Chauvier et al., 2011 Cell Death Dis 2011, 2:e203.
In this example, the Caspase-2 and Caspase-3 are human recombinant active enzymes that are respectively provided by Enzo Life® (ALX-201-057-U100) and R&D Systems® (707-C3-010/CF).
Caspase-2 is used at a final concentration of 0.1 nM in a “Caspase-2 buffer” containing 20 mM HEPES (pH 7.4), 5 mM DTT, 2 mM EDTA, 0.1% CHAPS and 800 mM succinate. Caspase-3 is used at a final concentration of 0.5 nM in a “Caspase-3 buffer” containing 20 mM HEPES (pH 7.4), 0.1% CHAPS, 5 mM DTT, and 2 mM EDTA.
The peptide substrates used for the enzymatic activity measurements are Ac-DEVD-AMC and Ac-VDVAD-AMC commercialized by EnzoLife® (respectively referenced ALX-260-031-M005 and ALX-260-060-M005). They are fluorogenic due to the presence of their AMC (7-amino-4-methylcoumarin) end group. The releasing of AMC enables to follow the enzymatic activity in fluorescence unit RFU over time in a 96-wells microplate (COSTAR 3915).
The fluorescence values are measured at 37° C. with a spectrofluorometer with a microplate reader BMG FLUOstar OPTIMA. This apparatus is driven by the software Biolise® and is equipped with thermoelectric cooling device by Peltier effect. The mathematic analysis of the experimental data are done with the software Kaleidagraph@.
The inhibitory properties of the tested compounds are evaluated by the determination of the kinact/KI ratio regarding either Caspase-2 or Caspase-3 wherein: • kinact is the maximal inactivation rate constant, and • KI is the dissociation constant according to:
Said ratio is measured according to the continuous method (Allison R D. Curr Protoc Protein Sci. 2001 May; Chapter 3:Unit 3.5.; Chauvier et al., 2011 Cell Death Dis 2:e203; Tan et al., J Med Chem 2015, […]).
Briefly, Caspases activities were determined by monitoring the hydrolysis of fluorogenic substrates (λexc=355 nm, λem=460 nm) as a function of time, in the presence of untreated Caspases (control) or Caspases that had been incubated with a test compound, for 30 min minimum at 37° C. using a BMG Fluostar microplate reader (black 96-well microplates) and the initial velocity (V0) was determined from the linear portion of the progress curve.
Substrates and compounds were previously dissolved in DMSO at 10 mM, with the final solvent concentration kept at lower 4% (v/v). V0, relative velocities, KM and IC50 were determined from experimental datas using Mars datas Analysis 2.0 and Kaleidagraph softwares.
Inhibitor binding affinity (dissociation constant, KI) and first-order rate constant (k3) parameters were determined for Caspase-2 and Caspase-3 using the progress curve method. The ratio k3/KI was obtained by fitting the experimental data to the equations (F.U., fluorescence unit): […]
A continuous method of determination of the kinact/KI ratio was used for evaluating the inhibitory activity of the tested compounds against Caspase-2 and Caspase-3.
The reaction mixture is prepared by letting the enzyme and the buffer incubate at 37° C. […]
(§3) The activities of the enzyme are measured between 45 and 60 minutes. […]

In assay [2] the target is T2, Caspase-3 (Homo sapiens, UniProt P42574).
T2 construct: the Caspase-2 and Caspase-3 are human recombinant active enzymes; purchased R&D Systems 707-C3-010/CF
T2 sequence (P42574 29-175 limits assumed): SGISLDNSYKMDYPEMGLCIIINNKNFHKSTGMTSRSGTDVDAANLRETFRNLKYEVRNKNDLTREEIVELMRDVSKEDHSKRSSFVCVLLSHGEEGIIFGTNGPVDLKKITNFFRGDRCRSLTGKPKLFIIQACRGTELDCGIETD
T2 sequence (P42574 176-277 limits assumed): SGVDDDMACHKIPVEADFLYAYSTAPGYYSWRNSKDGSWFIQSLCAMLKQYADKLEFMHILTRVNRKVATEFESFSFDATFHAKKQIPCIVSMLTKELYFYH
The experiment in a line: Caspase-3 inhibition assay (in vitro), kinact/KI by continuous method. It counts as biochemical. The note with it: human recombinant Caspase-3 0.5 nM, substrate Ac-DEVD-AMC, 37° C.; read-out: Inactivation constant kinact/KI Caspase-3 (converted).
Text: as §1, §2
In this example, the Caspase-2 and Caspase-3 are human recombinant active enzymes that are respectively provided by Enzo Life® (ALX-201-057-U100) and R&D Systems® (707-C3-010/CF). […]
The peptide substrates used for the enzymatic activity measurements are Ac-DEVD-AMC and Ac-VDVAD-AMC commercialized by EnzoLife® (respectively referenced ALX-260-031-M005 and ALX-260-060-M005). […] The releasing of AMC enables to follow the enzymatic activity in fluorescence unit RFU over time in a 96-wells microplate (COSTAR 3915).
The fluorescence values are measured at 37° C. with a spectrofluorometer with a microplate reader BMG FLUOstar OPTIMA. […]
The inhibitory properties of the tested compounds are evaluated by the determination of the kinact/KI ratio regarding either Caspase-2 or Caspase-3 wherein: • kinact is the maximal inactivation rate constant, and • KI is the dissociation constant according to: […]
as §3

The subject of assay [3] is HeLa cells. The experiment in a line: Protection against cellular death induced by vincristine, propidium iodide flow cytometry. It counts as cell-based, human. The note with it: compound at 3, 10, 30 and 60 μM added 1 hour before 20 nM vincristine, 48 hours. As for the experimental part: In this example, the protective effect of the compound 2 of the invention against cellular death induced by vincristine (a vinca alkaloid) is tested using a well-known flow cytometry cell death assay based on propidium iodide staining.
To evaluate the protecting effect of compound 2, a Caspase-dependent cellular model is used.
Human HeLa cells are used in this model. HeLa cells (cervical cancer cell line) were obtained from American Type Cell Collection (ATCC), and were cultured in Dulbecco's Modified Eagle Medium (DMEM, High Glucose, GlutaMAX™, Pyruvate) (Gibco, Life technologies), supplemented with 10% FCS and antibiotics (Gibco, Life technologies).
Human HeLa cells are treated with Vincristine (Sigma Aldrich) solubilized in water at 5 mM. Vincristine works partly by binding to the tubulin protein, stopping the cell from separating its chromosomes during the metaphase; the cell then undergoes apoptosis.
Propidium iodide (PI) (Sigma Aldrich) is used to evaluate plasma membrane permeabilisation, a sign of cell death. […]
The cells are then analyzed by flow cytometry with an excitation of 561 nm.
Fluorescence-Activated Cell Sorting was performed using a FACSCalibur cytometer (Becton Dickinson, San Jose, Calif.). For each sample, data from 5,000 Cells were registered and analyzed with the CellQuest Pro™ software (Becton Dickinson). […]

Residues, ends and D or L forms follow the SMILES beside them. *: point of attachment. X1 = O=C(O)C[C@H](N*)C(=O)COc1c(F)cccc1F; Quinaldoyl = O=C(c1ccc2ccccc2n1)*

For `Cc1ccc2c(c1)CCN(C(=O)[C@@H](NC(=O)[C@H](CC(=O)O)NC(=O)[C@@H](NC(=O)c1ccc3ccccc3n1)C(C)C)C(C)C)[C@@H]2C(=O)N[C@@H](CC(=O)O)C(=O)COc1c(F)cccc1F` [Compound 2, (S)-3-((S)-2-((S)-2-((S)-3-carboxy-2-((S)-3-methyl-2-(quinoline-2-carboxamido)butanamido)propanamido)-3-methylbutanoyl)-6-methyl-1,2,3,4-tetrahydroisoquinoline-1-carboxamido)-5-(2,6-difluorophenoxy)-4-oxopentanoic acid], in assay [1] (compared with Δ2Me-TRP601), the “efficiency to inhibit Caspase-2 (in words)” value is given as “as efficient as Δ2Me-TRP601 to inhibit Caspase-2”. Further, in assay [1], the kinact/KI was 1.76e+06 M⁻¹ s⁻¹ and the “times more efficient to inactivate Caspase-2 than to inactivate Caspase-3 (selectivity)” value is reported as 57 times. The kinact/KI in assay [2] was 30500 M⁻¹ s⁻¹. Moreover, in assay [3], the “protection of cells against apoptotic death induced by vincristine (percentage of propidium iodide positive cells)” value was “protects the cells against apoptotic death induced by vincristine in a dose-dependent manner”.
`CC(C)[C@H](NC(=O)c1ccc2ccccc2n1)C(=O)N[C@@H](CC(=O)O)C(=O)N[C@H](C(=O)N[C@@H](C)C(=O)N[C@@H](CC(=O)O)C(=O)COc1c(F)cccc1F)C(C)C` [Δ2Me-TRP-601, reference compound] (Quinaldoyl-VDVA-X1): in assay [1], the kinact/KI was 1.57e+06 M⁻¹ s⁻¹ and the “times more efficient to inactivate Caspase-2 than to inactivate Caspase-3 (selectivity)” value is listed as “does not exhibit this selectivity”. Besides, the kinact/KI in assay [2] is 1.92e+06 M⁻¹ s⁻¹.
